Assay results published in ChEMBL document CHEMBL1201862, “PubChem BioAssay data set” (2004).
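Interpolation was linear, between the two tested concentrations surrounding the appropriate level; five concentrations were tested over 48 hours in 96-well plates. GI50: concentration for 50% inhibition of growth.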 Active and inactive are the calls of the source. Cut-off read from the data, not from the text of the source: active = GI50 up to about 1.1 µM and inactive = higher.

Key:
Assay in all cases: DTP human tumour cell line panel, 48 h
SK-OV-3 = system: SK-OV-3
OVCAR-4 = system: OVCAR-4
K562 = system: K562
SNB-19 = system: SNB-19
SK-MEL-28 = system: SK-MEL-28
HT-29 = system: HT-29
MOLT-4 = system: MOLT-4
HL-60 = system: HL-60
A549 = system: A549
NCI-H23 = system: NCI-H23
LOX IMVI = system: LOX IMVI
OVCAR-8 = system: OVCAR-8
HOP-92 = system: HOP-92
OVCAR-5 = system: OVCAR-5
SR = system: SR
ACHN = system: ACHN

| SMILES | GI50 (SK-OV-3) | GI50 (OVCAR-4) | GI50 (K562) | GI50 (SNB-19) | GI50 (SK-MEL-28) | GI50 (HT-29) | GI50 (MOLT-4) | GI50 (HL-60) | GI50 (A549) | GI50 (NCI-H23) | GI50 (LOX IMVI) | GI50 (OVCAR-8) | GI50 (HOP-92) | GI50 (OVCAR-5) | GI50 (SR) | GI50 (ACHN) |
| --- | --- | --- | --- | --- | --- | --- | --- | --- | --- | --- | --- | --- | --- | --- | --- | --- |
| O=C1CC[C@H]2CNC(=O)C[C@H]2C1 | > 100 µM (inactive) | > 100 µM (inactive) | > 100 µM (inactive) | > 100 µM (inactive) | > 100 µM (inactive) | > 100 µM (inactive) | > 100 µM (inactive) | > 100 µM (inactive) | > 100 µM (inactive) | > 100 µM (inactive) | > 100 µM (inactive) | > 100 µM (inactive) | > 100 µM (inactive) |  |  |  |
| CCN1CCN(c2ccc(Nc3ccnc4ccc5nn(C)nc5c34)cc2)CC1 | 13.8 µM (inactive) | 11.9 µM (inactive) | 5.12 µM (inactive) | 18.7 µM (inactive) | 16.6 µM (inactive) | 4.26 µM (inactive) | 4.5 µM (inactive) | 94.8 µM (inactive) | 13.8 µM (inactive) | 15.4 µM (inactive) | 7.18 µM (inactive) | 9.71 µM (inactive) | 11.9 µM (inactive) | 15.9 µM (inactive) | 4.22 µM (inactive) | 10.6 µM (inactive) |
| CCC(C)(C)C(=O)O[C@H]1C[C@@H](C)C=C2C=C[C@H](C)[C@H](CC[C@@H]3C[C@@H](O)CC(=O)O3)[C@H]21 [SIMVASTATIN] | 1.72 µM (inactive) | > 30 µM (inactive) | 17.6 µM (inactive) |  | > 30 µM (inactive) | 6.85 µM (inactive) | > 30 µM (inactive) | 3.01 µM (inactive) | 5.79 µM (inactive) | 0.982 µM (active) |  | 1.37 µM (inactive) | < 0.003 µM (active) |  | 13.2 µM (inactive) | 0.447 µM (active) |
| COC(=O)/C(=N\Nc1nnc(C)n1N)C(C#N)c1ccc(Cl)cc1 (stereo not given) | > 100 µM (inactive) | > 100 µM (inactive) |  | > 100 µM (inactive) | > 100 µM (inactive) | > 100 µM (inactive) |  |  | > 100 µM (inactive) | > 100 µM (inactive) | > 100 µM (inactive) | > 100 µM (inactive) | > 100 µM (inactive) | > 100 µM (inactive) |  | > 100 µM (inactive) |
| NC(=S)N/N=C(\C(=O)Nc1ccc(Cl)c(Cl)c1)C1=NN(c2ccccc2)C(c2cccc([N+](=O)[O-])c2)CC1=O (stereo not given) | 30.5 µM (inactive) | 20 µM (inactive) | 17.9 µM (inactive) | 35.6 µM (inactive) | 52.5 µM (inactive) | 16.5 µM (inactive) | 17.3 µM (inactive) | 33.7 µM (inactive) | 75.2 µM (inactive) | 21.5 µM (inactive) | 16.3 µM (inactive) | 26.7 µM (inactive) |  | 38.5 µM (inactive) | 28.6 µM (inactive) | 39.2 µM (inactive) |
| C=CCN1C(=O)C/C(=C2/CCC(=O)N2CC=C)C1=O | > 100 µM (inactive) | > 100 µM (inactive) | > 100 µM (inactive) | > 100 µM (inactive) | > 100 µM (inactive) | > 100 µM (inactive) | > 100 µM (inactive) | > 100 µM (inactive) | > 100 µM (inactive) | > 100 µM (inactive) | > 100 µM (inactive) | > 100 µM (inactive) | > 100 µM (inactive) | > 100 µM (inactive) | > 100 µM (inactive) | > 100 µM (inactive) |
| N#Cc1c(-c2ccccc2)cc(-c2ccc(N)cc2)[nH]c1=O | > 100 µM (inactive) | > 100 µM (inactive) | > 100 µM (inactive) | > 100 µM (inactive) | > 100 µM (inactive) | > 100 µM (inactive) | > 100 µM (inactive) | > 100 µM (inactive) | > 100 µM (inactive) | > 100 µM (inactive) | > 100 µM (inactive) | > 100 µM (inactive) | > 100 µM (inactive) | > 100 µM (inactive) | > 100 µM (inactive) | > 100 µM (inactive) |
| N#Cc1ccc(C(C2C(=O)NC(=O)NC2=O)C2C(=O)NC(=O)NC2=O)cc1 | > 100 µM (inactive) | > 100 µM (inactive) | 77.1 µM (inactive) | > 100 µM (inactive) | > 100 µM (inactive) | > 100 µM (inactive) | > 100 µM (inactive) | > 100 µM (inactive) | > 100 µM (inactive) | > 100 µM (inactive) | > 100 µM (inactive) | > 100 µM (inactive) | > 100 µM (inactive) | > 100 µM (inactive) | > 100 µM (inactive) | > 100 µM (inactive) |
| CCOC(=O)/C(C(=O)c1ccccc1)=C1\N[C@H](C(=O)OCC)CS1 |  | > 100 µM (inactive) | > 100 µM (inactive) | > 100 µM (inactive) | > 100 µM (inactive) | > 100 µM (inactive) | > 100 µM (inactive) | > 100 µM (inactive) | > 100 µM (inactive) | > 100 µM (inactive) | > 100 µM (inactive) | > 100 µM (inactive) |  | > 100 µM (inactive) | > 100 µM (inactive) | > 100 µM (inactive) |
| CCC/C(=N/NC(=O)C(N)=O)C(CC)C(=O)CCC(=O)N(Cc1ccccc1)Cc1ccccc1 (stereo not given) | > 100 µM (inactive) |  | > 100 µM (inactive) | > 100 µM (inactive) | > 100 µM (inactive) | > 100 µM (inactive) | > 100 µM (inactive) | > 100 µM (inactive) | > 100 µM (inactive) | > 100 µM (inactive) | > 100 µM (inactive) | > 100 µM (inactive) | > 100 µM (inactive) | > 100 µM (inactive) | > 100 µM (inactive) | > 100 µM (inactive) |
| Cc1cc(C)nc(NS(=O)(=O)c2ccc(Nc3c4ccccc4nc4c(C(=O)Nc5ccc(S(=O)(=O)N=C(N)N)cc5)cccc34)cc2)n1 | > 100 µM (inactive) | > 100 µM (inactive) | > 100 µM (inactive) | 35.7 µM (inactive) | 67.3 µM (inactive) | > 100 µM (inactive) | > 100 µM (inactive) |  | > 100 µM (inactive) | > 100 µM (inactive) | > 100 µM (inactive) | > 100 µM (inactive) | 37.5 µM (inactive) | 51.8 µM (inactive) |  | > 100 µM (inactive) |
| O=C1c2ccccc2OP(=O)(OCC(F)(F)F)OC1(C(F)(F)F)C(F)(F)F (stereo not given) | > 100 µM (inactive) | > 100 µM (inactive) | > 100 µM (inactive) | > 100 µM (inactive) | > 100 µM (inactive) | > 100 µM (inactive) | > 100 µM (inactive) | > 100 µM (inactive) | > 100 µM (inactive) | > 100 µM (inactive) | > 100 µM (inactive) | > 100 µM (inactive) | > 100 µM (inactive) | > 100 µM (inactive) | > 100 µM (inactive) | > 100 µM (inactive) |
| COc1ccc(/C=N\N2C(=O)Cc3ccccc32)cc1 | > 100 µM (inactive) | > 100 µM (inactive) | 95.5 µM (inactive) | > 100 µM (inactive) | > 100 µM (inactive) | > 100 µM (inactive) | 41.4 µM (inactive) | > 100 µM (inactive) | > 100 µM (inactive) | > 100 µM (inactive) | > 100 µM (inactive) | > 100 µM (inactive) | 22.3 µM (inactive) | > 100 µM (inactive) |  | > 100 µM (inactive) |
| O=C(O)CCc1nn2c(nc1=O)sc1ccc3ccccc3c12 | > 100 µM (inactive) | > 100 µM (inactive) | > 100 µM (inactive) | > 100 µM (inactive) | > 100 µM (inactive) | > 100 µM (inactive) | > 100 µM (inactive) | > 100 µM (inactive) | > 100 µM (inactive) | > 100 µM (inactive) | > 100 µM (inactive) | > 100 µM (inactive) | > 100 µM (inactive) |  | > 100 µM (inactive) | > 100 µM (inactive) |
| CCOC(=O)NC(=O)c1cn(C2OC(COC(=O)CCCCCCCCC(=O)OCC3OC(n4cc(C(=O)NC(=O)OCC)c(=O)[nH]c4=O)C(O)C3O)C(O)C2O)c(=O)[nH]c1=O (stereo not given) |  | > 100 µM (inactive) | > 100 µM (inactive) | > 100 µM (inactive) | > 100 µM (inactive) | > 100 µM (inactive) | > 100 µM (inactive) | > 100 µM (inactive) | > 100 µM (inactive) | > 100 µM (inactive) | > 100 µM (inactive) | > 100 µM (inactive) |  | > 100 µM (inactive) | > 100 µM (inactive) | > 100 µM (inactive) |
| CC1=C(C(=O)O)N2C(=O)[C@@H](NC(=O)C(c3ccccc3)N3CSC(=S)N(C(C)C)C3)C2SC1 (stereo not given in full) | > 100 µM (inactive) | > 100 µM (inactive) | 74.1 µM (inactive) | > 100 µM (inactive) | 59 µM (inactive) | > 100 µM (inactive) | > 100 µM (inactive) | > 100 µM (inactive) |  | > 100 µM (inactive) | > 100 µM (inactive) | > 100 µM (inactive) | > 100 µM (inactive) | > 100 µM (inactive) |  | > 100 µM (inactive) |
| c1ccc(SC2(Sc3ccccc3)CCCC2)cc1 | > 100 µM (inactive) | > 100 µM (inactive) | > 100 µM (inactive) | > 100 µM (inactive) | > 100 µM (inactive) |  | > 100 µM (inactive) | > 100 µM (inactive) | > 100 µM (inactive) | > 100 µM (inactive) | > 100 µM (inactive) | > 100 µM (inactive) | 71.1 µM (inactive) |  | > 100 µM (inactive) | > 100 µM (inactive) |
| Cc1cccc2c(=O)cc(-c3ccccc3)[nH]c12 |  | 4.09 µM (inactive) | 2 µM (inactive) | 7.94 µM (inactive) | > 100 µM (inactive) | 3.1 µM (inactive) | 4.54 µM (inactive) | 3.25 µM (inactive) | 6.11 µM (inactive) | 4.91 µM (inactive) | 4.58 µM (inactive) |  |  |  | 6.93 µM (inactive) | 12.2 µM (inactive) |
